Laboratory results taken from the supplement of paper PMC13380429.

Legend:
Conditions in all cases: 72 h
[1] = test system: Caco-2; test: cell viability relative to DMSO; higher = less toxic
[2] = test system: Calu-3; test: as above
[3] = test system: HepG2; test: as above
[4] = test system: U2OS; test: as above
[5] = test system: Vero E6; test: as above
[6] = test system: Calu-3; test: relative viability EC50 (midpoint between 100% and the lowest measured viability); higher = less toxic
[7] = test system: Caco-2; test: drug sensitivity score (DSS) for viability; higher = more toxic; extreme values may be limits of the assay
[8] = test system: Calu-3; test: as above
[9] = test system: HepG2; test: as above
[10] = test system: U2OS; test: as above
[11] = test system: Vero E6; test: as above
[12] = test system: HepG2; test: relative viability EC50 (midpoint between 100% and the lowest measured viability); higher = less toxic
[13] = test system: Vero E6; test: as above
[14] = test system: U2OS; test: as above

| Compound | cell viability ([1]; 1 nM) [%] | cell viability ([1]; 10 nM) [%] | cell viability ([1]; 100 nM) [%] | cell viability ([1]; 1000 nM) [%] | cell viability ([1]; 10000 nM) [%] | cell viability ([2]; 1 nM) [%] | cell viability ([2]; 10 nM) [%] | cell viability ([2]; 100 nM) [%] | cell viability ([2]; 1000 nM) [%] | cell viability ([2]; 10000 nM) [%] | cell viability ([3]; 1 nM) [%] | cell viability ([3]; 10 nM) [%] | cell viability ([3]; 100 nM) [%] | cell viability ([3]; 1000 nM) [%] | cell viability ([3]; 10000 nM) [%] | cell viability ([4]; 1 nM) [%] | cell viability ([4]; 10 nM) [%] | cell viability ([4]; 100 nM) [%] | cell viability ([4]; 1000 nM) [%] | cell viability ([4]; 10000 nM) [%] | cell viability ([5]; 1 nM) [%] | cell viability ([5]; 10 nM) [%] | cell viability ([5]; 100 nM) [%] | cell viability ([5]; 1000 nM) [%] | cell viability ([5]; 10000 nM) [%] | relative viability EC50 [6] [µM] | drug sensitivity score [7] | drug sensitivity score [8] | drug sensitivity score [9] | drug sensitivity score [10] | drug sensitivity score [11] | relative viability EC50 [12] [µM] | relative viability EC50 [13] [µM] | relative viability EC50 [14] [µM] |
| --- | --- | --- | --- | --- | --- | --- | --- | --- | --- | --- | --- | --- | --- | --- | --- | --- | --- | --- | --- | --- | --- | --- | --- | --- | --- | --- | --- | --- | --- | --- | --- | --- | --- | --- |
| COc1ccc(-n2nc(CCC(=O)N(C)O)cc2-c2ccc(Cl)cc2)cc1 [tepoxalin] | 103 | 112 | 116 | 99.4 | 59.8 | 97.5 | 110 | 102 | 106 | 110 | 107 | 106 | 96.4 | 96.6 | 73.8 | 97.1 | 95.7 | 96.7 | 94.6 | 61.8 | 98.2 | 99.9 | 99.5 | 99.9 | 64.7 | > 10 | 2.1 | 0 | 1.6 | 2.8 | 1.7 |  |  |  |
| CC(=O)/N=c1/[nH]c(C)c(-c2ccc(Cl)c(S(=O)(=O)NCCO)c2)s1 [PIK-93] | 94 | 109 | 92.5 | 93.5 | 58.9 | 103 | 102 | 91 | 81.2 | 41.9 | 91.8 | 92.7 | 83.9 | 71.6 | 34.7 | 102 | 106 | 98.1 | 90.8 | 58.6 | 106 | 105 | 99 | 96.9 | 78.6 | 1.49 | 3.2 | 5.3 | 7.8 | 3.6 | 1.1 | 0.745 | > 10 |  |
| COc1cc(C=O)c([N+](=O)[O-])cc1OC [DMNB] |  |  |  |  |  | 102 | 102 | 103 | 96.9 | 107 |  |  |  |  |  |  |  |  |  |  | 103 | 100 | 99.2 | 96.9 | 96.6 | > 10 |  | 0 |  |  | 0 |  | > 10 |  |
| COc1ccc(CNC(=O)Nc2ncc([N+](=O)[O-])s2)cc1 | 105 | 103 | 95.5 | 103 | 73.7 | 104 | 107 | 94.9 | 107 | 96.5 | 113 | 107 | 102 | 99.8 | 30.3 | 96.1 | 104 | 96.5 | 102 | 90.8 | 106 | 104 | 101 | 102 | 97.2 | > 10 | 0.9 | 0 | 3.9 | 0 | 0 | 3.15 | > 10 | > 10 |
| C=CC(=O)Nc1cc2c(Nc3ccc(F)c(Cl)c3)ncnc2cc1OCCCN1CCOCC1 [canertinib] | 91.7 | 90.3 | 81.6 | 81.5 | 69.5 | 100 | 89.8 | 70.2 | 41.2 | 30.1 | 105 | 97.6 | 105 | 95.5 | 90.5 | 97.1 | 98.5 | 93.1 | 96.1 | 89.9 | 98.5 | 93.1 | 86.3 | 65.6 | 51 | 0.132 | 5.4 | 14.8 | 0 | 0 | 7.8 | > 10 |  | > 10 |
| O=C1c2ccccc2C(Cc2ccnc(F)c2)(Cc2ccnc(F)c2)c2ccccc21 [DMP-543] | 97.2 | 100 | 92.5 | 81.2 | 72.9 | 103 | 92.1 | 85.9 | 92 | 81.3 | 90.1 | 100 | 94.4 | 95.4 | 89.4 | 99.8 | 105 | 96 | 96.6 | 95.1 | 101 | 101 | 100 | 97.7 | 94.8 | > 10 | 3.3 | 1.7 | 0 | 0 | 0 | > 10 | > 10 | > 10 |
| COc1ccc2c(Oc3ccc(NC(=O)c4c(C)n(CC(C)(C)O)n(-c5ccccc5)c4=O)nc3)ccnc2c1 [AMG458] | 99.6 | 106 | 90.8 | 95.9 | 72 | 99.1 | 106 | 100 | 92.7 | 86.6 | 99.3 | 92.2 | 98.2 | 88.3 | 65.8 | 102 | 116 | 99.3 | 103 | 93.3 | 104 | 103 | 104 | 98.6 | 102 | > 10 | 1.8 | 0.5 | 3 | 0 | 0 |  | > 10 | > 10 |
